Reference: PubChem BioAssay (NCI)
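Test compounds were applied to cells in 96-well plates for 48 hours at 5 doses. The concentration for full growth arrest is given as TGI.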

Tests used:
Experiment in all cases: NCI tumour cell line growth inhibition, 48 h
[1] = test system: HT29 colon
[2] = test system: A549 NSCLC
[3] = test system: MCF7 breast
[4] = test system: NCI-H522 lung
[5] = test system: COLO 205 colon
[6] = test system: SF-295 CNS
[7] = test system: TK-10 renal
[8] = test system: NCI-H460 lung
[9] = test system: BT-549 breast
[10] = test system: DU-145 prostate
[11] = test system: SK-MEL-5 melanoma
[12] = test system: HCT-116 colon
[13] = test system: HCT-15 colon
[14] = test system: SN12C renal
[15] = test system: MOLT-4 leukemia
[16] = test system: KM12 colon
[17] = test system: HOP-62 NSCLC
[18] = test system: SK-OV-3 ovarian
[19] = test system: HCC-2998 colon
[20] = test system: SR leukemia
[21] = test system: SK-MEL-2 melanoma
[22] = test system: HS 578T breast
[23] = test system: K-562 leukemia
[24] = test system: UACC-257 melanoma
[25] = test system: PC-3 prostate
[26] = test system: NCI/ADR-RES ovarian
[27] = test system: RPMI-8226 leukemia
[28] = test system: UACC-62 melanoma
[29] = test system: HL-60(TB) leukemia
[30] = test system: EKVX NSCLC
[31] = test system: SK-MEL-28 melanoma
[32] = test system: MDA-MB-435
[33] = test system: SNB-19 CNS
[34] = test system: MALME-3M melanoma
[35] = test system: SF-268 CNS
[36] = test system: OVCAR-8 ovarian
[37] = test system: 786-0 renal
[38] = test system: OVCAR-5 ovarian
[39] = test system: NCI-H23 lung
[40] = test system: U251 CNS
[41] = test system: OVCAR-4 ovarian
[42] = test system: UO-31 renal
[43] = test system: M14 melanoma
[44] = test system: MDA-N
[45] = test system: NCI-H226 lung
[46] = test system: RXF 393 renal
[47] = test system: CCRF-CEM leukemia
[48] = test system: MDA-MB-231 breast
[49] = test system: SW-620 colon
[50] = test system: IGROV1 ovarian
[51] = test system: LOX IMVI melanoma
[52] = test system: T-47D breast
[53] = test system: OVCAR-3 ovarian
[54] = test system: CAKI-1 renal
[55] = test system: ACHN renal

Measured: TGI

CC(=O)n1[nH]c(=O)n(-c2ccccc2)c1=O
> 100 µM: [1] | [2] | [3] | [4] | [5] | [6] | [7] | [8] | [9] | [10] | [11] | [12] | [13] | [14] | [15] | [16] | [17] | [18] | [19] | [20] | [21] | [22] | [23] | [24] | [25] | [26] | [27] | [28] | [29] | [30] | [31] | [32] | [33] | [34] | [35] | [36] | [37] | [38] | [39] | [40] | [41] | [42] | [43] | [44] | [45] | [46] | [47] | [48] | [49] | [50] | [51] | [52] | [53] | [54] | [55]
